US20160113900A1, “INHIBITORS OF MITOCHONDRIAL STAT3 AND USES THEREOF IN MODULATION OF MAST CELL EXOCYTOSIS” (Yissum Research Development Company of the Hebrew …, priority 2014, published 2016)
One block for each molecule: values may come before it.

Columns and labels:
RBL cells [1] = test: β-Hexosaminidase release assay (degranulation) in RBL cells; format: cell-based, rat
Description: (§1) RBL-2H3 cells were maintained in RPMI 1640 medium as previously described1. Bone marrow was isolated from 5-6 week-old mice, and BMMC were cultured in RPMI medium supplemented with 20 ng/ml interleukin-3 (IL-3) and 20 ng/ml SCF as previously described2, 3. Cells were generally grown for a minimum of 4 weeks and used when >90% of the population expressed FcεRI. BMMC and RBL cells were sensitized first with anti-DNP IgE monoclonal antibody (SPE-7; Sigma-Aldrich Corp.) and then challenged with DNP-BSA (Sigma-Aldrich Corp.). IgE antibody was centrifuged (18,000 g, 5 min) before use to remove aggregates. […] For glycolysis elimination cells were maintained in glucose-free RPMI supplemented with 10% dialyzed fetal calf serum and 5 mM galactose.
(§2) 1×104 RBL or 3×104 BMMC were immunologically activated as described above. After IgE incubation, the cells were washed three times with 5 mL of degranulation buffer (NaCl 130 mM, KCl 5 mM, Glucose 5.6 mM, MgCl2 1 mM, CaCl2 1.2 mM, Hepes pH 7.4 10 mM, BSA 0.1%) and resuspended in 200 μL of the same buffer with DNP-albumin for 30 min. The release of β-hexosaminidase was determined in triplicates in a 96-well plate. Aliquots (20 μL) of supernatants and cell lysates were incubated for 30 minutes with 100 μL of substrate solution (1.3 mg/mL p-nitrophenyl-b-D-2-acetamido-2-deoxyglucopyranozide in 0.1 M citrate [pH 4.51]). The reaction was stopped by the addition of 200 μL of 0.2 M glycine (pH 10.7). The plate OD was read in an enzyme-linked immunosorbent assay (ELISA) reader at a wavelength of 405 nm Percent release values for each experimental condition were calculated3.

RBL cells [2] = test: ATP determination (ATPLite luminescence) in RBL cells; format: cell-based, rat; conditions: for ATP levels: RBL cells
Description: as §1
ATP levels were measured using the ATPLite luminescence-based assay according to the manufacturer's instructions (Perkin Elmer, Waltham, Mass., USA).

caspase3 [3] = test: Western blot of caspase3 / cleaved caspase3 (apoptosis) in RBL cells; format: cell-based, rat
Description: (§3) RBL cells and mitochondrial pellets were lysed by the addition of lysis buffer (50 mM Tris-HCl pH 7.4, 1% Nonidet P-40, 0.25% Na-deoxycholate, 150 mM NaCl, 1 mM EDTA, 1 mM PMSF) supplemented with 15 μl protease inhibitor (Sigma-Aldrich). Cells and mitochondria were vortexed and incubated on ice for 15 min. The lysates were then centrifuged at 14,000 g for 15 min and pellets were discarded. The protein concentration of each sample was determined using Bradford Reagent (Sigma-Aldrich). Proteins were resolved by 10-15% SDS-PAGE under reducing conditions and transferred to polyvinylidene difluoride membranes (Millipore Billerica, Ma). The membranes were incubated in 5% fat-free milk and TBST (10 mM Tris-HCl, pH 7.4, 150 mM NaCl, 0.1% Tween 20) for 1 h and then in 5% BSA and TBST containing various dilutions of primary Abs for 18 h at 4° C. The membranes were washed three times with TBST for 5 mM before and after each incubation with secondary Ab. The proteins were detected with the appropriate secondary Ab (1 h; room temperature) coupled to HRP-conjugated goat anti-rabbit or anti-mouse Ab and visualized by chemiluminescence according to the manufacturer's instructions (Pierce).

RBL cells [4] = test: Oxygen consumption (Seahorse XF analyzer) in RBL cells; format: cell-based, rat; conditions: for decrease in oxygen consumption: 40 μM U0126; for oxygen consumption: RBL cells, 3 h
Description: as §1
Oxygen consumption rate (OCR) was measured using an XF24 extracellular flux analyzer (Seahorse Biosciences, North Billeric, Mass., USA).

[5] = system: STAT3 serine 727 phosphorylation; test: Western blot of STAT3 serine 727 phosphorylation in activated RBL cells; format: cell-based, rat
Description: RBL cells were washed once in cold PBS prior to homogenization. 9×10^6 cells were homogenized in buffer A (320 mm sucrose, 5 mm Tris, 2 mm EGTA, pH 7.4) with 10 strokes of a Teflon Dounce homogenizer. The procedure was performed at 4° C. The homogenate was centrifuged for 3 min at 2000 g and the supernatant kept. This was repeated twice, and the supernatants combined then centrifuged for 3 min at 2000 g. to remove the nuclei and cell debris. The supernatant was transferred to a clean tube and centrifuged for 10 min at 12,000 g to pellet mitochondria, washed twice resuspended in a small volume of buffer A and stored at −70° C. In order to prepare mitoplasts, the mitochondrial pellet was resuspended in buffer A with the addition of 0.02% (w/v) digitonin. The pellet was resuspended and washed twice in large volumes of digitonin-free buffer A. […] Cells and mitochondria were vortexed and incubated on ice for 15 min. The lysates were then centrifuged at 14,000 g for 15 min and pellets were discarded. The protein concentration of each sample was determined using Bradford Reagent (Sigma-Aldrich). Proteins were resolved by 10-15% SDS-PAGE under reducing conditions and transferred to polyvinylidene difluoride membranes (Millipore Billerica, Ma). […] The membranes were washed three times with TBST for 5 mM before and after each incubation with secondary Ab. The proteins were detected with the appropriate secondary Ab (1 h; room temperature) coupled to HRP-conjugated goat anti-rabbit or anti-mouse Ab and visualized by chemiluminescence according to the manufacturer's instructions (Pierce).

BMMC [6] = test: β-Hexosaminidase release assay (degranulation) in BMMC; format: cell-based, mouse; conditions: activated BMMC, 6 μM
Description: as §1, §2

RBL cells [7] = test: TNF-α secretion of activated RBL cells; format: cell-based, rat; conditions: activated RBL cells (FIG. 19G)
caspase3 [8] = test: Western blot of cleaved caspase3 in BMMC; format: cell-based, mouse; conditions: 6 μM (FIG. 21D)
c-myc = test: Western blot of c-myc (STAT3 target gene) in RBL cells; format: cell-based, rat; conditions: 3 h
Description: as §3
The levels of cleaved caspase3 were measured as an indicator of apoptosis, which could occur as a result of inhibiting STAT3's target genes. […] Since higher concentrations reduced the levels of c-myc and enhanced the levels of cleaved caspase3, the inventors concluded that 6 μM Mitocur-1/3 or lower would be suitable for the present invention. As these molecules are intended to be used in a time frame greater than 3 h, RBL cells were incubated with the same concentrations of Mitocur-1/3 for 24 h and the levels of cleaved caspase3 were determined by Western blot analysis.

BMMC [9] = test: Measurements of secreted mediators (ELISA) in activated BMMC; format: cell-based, mouse
Description: 1×106 BMMC were immunologically activated as described above. After IgE incubation, the cells were washed three times in PBS and incubated with DNP-albumin (Sigma-Aldrich) for 30 mM in complete growth medium. Supernatant was collected and Granzyme B and TNFα content were measured using ELISA Kits (eBioscience).

plasma histamine = test: In vivo histamine release assay, passive systemic IgE-mediated anaphylaxis model; conditions: Mitocur-1 80 mg/kg i.p., 3.5 h before DNP-BSA challenge
Description: C3H 6-7 week male and female WT mice were purchased from Jackson Lab (Cambridge, Mass., USA), mice were fed a regular diet and with drinking water ad libitum. Experiments were approved by The Hebrew University Ethical Committee for Animal Experimentation.
WT C3H mice were sensitized with 3 μg murine IgE anti-DNP mAb SPE-7 by means of intravenous injection in the tail vein. Twenty-four hours later, mice were treated with 40 mg/kg of static dissolved in corn oil or corn oil alone for 2.5 hours, then mice were challenged with i.v. injection of DNP-BSA (250 μg per mouse). 100 μl of blood was collected immediately and added to an equal volume of pre-cold Alsever's Solution. Blood was centrifuged 2000 g for […] and plasma supernatant was collected. Plasma histamine levels were determined by using competitive ELISA (IBL International Gmbh, Hamburg, Germany).
STAT3's role in vivo was investigated by evaluating the response to allergic stimulation in Stattic-treated mice. The passive systemic IgE-mediated anaphylaxis model was used. Mice were injected (i.v.) with IgE anti-DNP. Twenty four hours later they were injected (i.p.) with Stattic (80 mg/kg) or corn oil which was used as control. Three and a half hours later the mice were challenged with DNP-BSA for 1.5 minutes. Plasma was collected, and histamine levels were measured by competitive ELISA. Histamine secretion in Stattic-treated mice was 43% less than that in control mice (FIG. 17, p<0.05).
Mitocur-1/3 effectiveness in vivo was investigated by evaluating the response to allergic stimulation in Mitocur-1/3-treated mice. The passive systemic IgE-mediated anaphylaxis model was used. Mice were injected (i.v.) with IgE anti-DNP. Twenty four hours later they were injected (i.p.) with Mitocur-1 (80 mg/kg) and Mitocur-3 (40 mg/kg). Corn oil was used as control. Three and a half hours later the mice were challenged with DNP-BSA for 1.5 minutes. Plasma was collected, and histamine levels were measured by competitive ELISA. Histamine secretion in Mitocur-1-treated mice was 35% less than that in control mice (FIG. 22A, p<0.05).

[10] = molecular target: signal transducer and activator of transcription factor 3 (STAT3), mitochondrial, endogenous in RBL cells (rat (RBL cells)) (UniProt P52631); test: cell-based or functional assay
UniProt P52631, sequence (P52631 2-770 limits assumed): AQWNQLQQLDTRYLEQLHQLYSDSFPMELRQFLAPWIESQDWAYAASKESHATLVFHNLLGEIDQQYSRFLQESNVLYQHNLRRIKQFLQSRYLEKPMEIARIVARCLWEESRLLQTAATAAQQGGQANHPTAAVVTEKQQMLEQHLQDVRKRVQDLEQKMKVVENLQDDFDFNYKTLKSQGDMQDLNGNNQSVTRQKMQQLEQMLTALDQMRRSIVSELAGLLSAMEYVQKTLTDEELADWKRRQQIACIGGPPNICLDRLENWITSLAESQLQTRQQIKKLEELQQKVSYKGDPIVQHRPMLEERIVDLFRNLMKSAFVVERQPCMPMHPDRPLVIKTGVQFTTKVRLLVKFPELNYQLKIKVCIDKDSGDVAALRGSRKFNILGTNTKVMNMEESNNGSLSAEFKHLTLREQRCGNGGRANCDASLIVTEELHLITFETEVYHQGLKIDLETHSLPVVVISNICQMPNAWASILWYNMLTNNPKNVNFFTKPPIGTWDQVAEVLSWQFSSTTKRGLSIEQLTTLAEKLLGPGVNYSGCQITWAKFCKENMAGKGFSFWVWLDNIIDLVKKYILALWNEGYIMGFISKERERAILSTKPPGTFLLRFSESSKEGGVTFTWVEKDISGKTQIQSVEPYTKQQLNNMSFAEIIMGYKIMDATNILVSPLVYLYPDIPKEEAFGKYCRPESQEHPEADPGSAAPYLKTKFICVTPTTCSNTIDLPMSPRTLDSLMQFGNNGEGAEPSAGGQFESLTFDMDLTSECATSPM

[11] = immunologically activated BMMC, 6 μM (FIG. 21C)
[12] = RBL cells transfected with PIAS3-mito vs empty plasmid

Molecule: COc1ccc(S(=O)(=O)Nc2cc(-c3c(O)ccc4ccccc34)c(O)c3ccccc23)cc1 [Mitocur C188-9, N-(1′,2-Dihydroxy-1,2′-binaphthalen-4′-yl)-4-methoxybenzenesulfonamide]
degranulation (RBL cells [1]; immunologically activated RBL cells, 250 μM C188-9, 10 min): abolished

Molecule: N#CC(=C(/N)Sc1ccccc1N)/C(C#N)=C(\N)Sc1ccccc1N [Mitocur U0126, reference compound]
reduction in degranulation as compared to control (RBL cells [1]; IgE-Ag stimulated RBL cells, 40 μM U0126, 20 min): 33.0±0.6% | degranulation levels at higher concentrations (RBL cells [1]; RBL cells, U0126 above 40 μM (FIG. 12)): more profound reduction | decrease in ATP levels (RBL cells [2]; immunologically activated RBL cells, 20 min pre-treatment with 40 μM U0126): 3.0±0.4% | caspase3 levels (apoptosis) (caspase3 [3]; activated RBL cells, 40 μM U0126): no change | decrease in oxygen consumption (RBL cells [4]; activated RBL cells): 15.8±4.9% | decrease in oxygen consumption (RBL cells [4]; quiescent RBL cells): 9.4±2.4% | STAT3 727 serine phosphorylation, total cell level ([5]; RBL cells, 40 μM U0126, activated 5 min): significant decrease | STAT3 727 serine phosphorylation, mitochondrial level ([5]; activated RBL cells fractionated into cytosol and mitochondria, 40 μM U0126): decrease

degranulation levels (BMMC [6]; 3 h incubation): reduced | degranulation levels (BMMC [6]; 24 h incubation): reduced | cleaved caspase3 levels (caspase3 [8]): no change | melting point: 130 to 140 °C
Molecule: COc1cc(/C=C/C(=O)CC(=O)/C=C/c2ccc(OCCC[P+](c3ccccc3)(c3ccccc3)c3ccccc3)c(OC)c2)ccc1OCCC[P+](c1ccccc1)(c1ccccc1)c1ccccc1 [Mitocur-1, 1,7-Bis{3-methoxy-4-[3-(triphenylphosphonium)propoxy]-phenyl}hepta-1,6-diene-3,5-dione dichloride]
Emax at 6 µM (RBL cells [1]; Rattus norvegicus, RBL cells, 6 μM, 3 h incubation, read-out: maximum effect, reduction of degranulation): > 50% | TNF-α secretion (RBL cells [7]): completely abolished | ATP levels (RBL cells [2]; 100 μM, 3 h (data not shown)): reduced | ATP levels (RBL cells [2]; 6-50 μM, 3 h): No significant reduction | cleaved caspase levels (caspase3 [3]; RBL cells, 6 μM, 3 h): no change | cleaved caspase3 levels (caspase3 [3]; RBL cells, concentrations higher than 6 μM, 3 h): enhanced | oxygen consumption (RBL cells [4]; 100 μM): reduced | oxygen consumption (RBL cells [4]; 6-50 μM): No significant reduction | c-myc levels compared to control (c-myc; 6 μM): no change | c-myc levels (c-myc; concentrations higher than 6 μM): reduced | Granzyme-B secretion (BMMC [9]; BMMC (data not shown)): abolished | cytokine secretion: IL-6 (BMMC [9]; [11]): totally abolished | cytokine secretion: TNF-α (BMMC [9]; [11]): totally abolished | histamine secretion less than in control mice (plasma histamine): 35%

ATP levels of activated cells compared to control (empty plasmid) [10]: 15.9 % decrease | degranulation (β-hexosaminidase release) [10]: 67.5%
Molecule: PIAS3 fused to a mitochondrial target sequence (PIAS3-mito) (from UniProt O54714 13-628)

B1: PIAS3-mito: PIAS3 fused to a mitochondrial target sequence, expressed from a transfected plasmid (SEQ ID NO. 16) (protein)
chain: MSVLTPLLLRGLTGSARRLPVPRAKIHSLLQVDSFRVSELQVLLGFAGRNKSGRKHELLAKALHLLKSSCAPSVQMKIKELYRRRFPRKTLGPSDLSLLSLPPGTSPPVHPDVTMKPLPFYEVYGELIRPTTLASTSSQRFEEAHFTFALTPQQLQQILTSREVLPGAKCDYTIQVQLRFCLCETSCPQEDYFPPNLFVKVNGKLCPLPGYLPPTKNGAEPKRPSRPINITPLARLSATVPNTIVVNWSSEFGRNYSLSVYLVRQLTAGTLLQKLRAKGIRNPDHSRALIKEKLTADPDSEVATTSLRVSLMCPLGKMRLTVPCRALTCAHLQSFDAALYLQMNEKKPTWTCPVCDKKAPYESLIIDGLFMEILNSCSDCDEIQFMEDGSWCPMKPKKEASEVCPPPGYGLDGLQYSAVQEGIQPESKKRVEVIDLTIESSSDEEDLPPTKKHCPVTSAAIPALPGSKGALTSGHQPSSVLRSPAMGTLGSDFLSSLPLHEYPPAFPLGADIQGLDLFSFLQTESQHYGPSVITSLDEQDTLGHFFQYRGTPSHFLGPLAPTLGSSHRSSTPAPPPGRVSSIVAPGSSLREGHGGPLPSGPSLTGCRSDVISLD
decrease in degranulation (RBL cells [1]; [12]): 67.5±15.0% | decrease in ATP levels of activated cells compared to control (RBL cells [2]; RBL cells transfected with PIAS3-mito vs empty plasmid, activated 5 min): 15.9±1.6% | oxygen consumption in activated cells compared to activated control cells (RBL cells [4]; [12]): did not change
